Laboratory results published in patent US9302999B2, “Substituted triazoles as herbicides” (E. I. DU PONT DE NEMOURS AND COMPANY, priority 2012, dated 2016).

How the values were obtained:
Assay type in all cases: in vivo
[1] = test system: pigweed (Amaranthus retroflexus); experiment: Test A pre-/postemergence: pigweed; conditions: for Pigweed plant response rating: visual rating on 0 to 100 scale (0 no effect, 100 complete control), approximately ten days
Method in brief: (§1)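 Soil medium was loam blended with sand; treatments pre- and postemergence were applied concurrently, postemergence at one- to two-leaf stage. Approximately ten days in greenhouse preceded visual comparison with untreated controls, scored 0 (no effect) to 100 (complete control).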

[2] = test system: wheat (Triticum aestivum); experiment: Test A pre-/postemergence: wheat; conditions: for Wheat plant response rating: visual rating on 0 to 100 scale (0 no effect, 100 complete control), approximately ten days
Method in brief: as §1

[3] = test system: morningglory (Ipomoea coccinea); experiment: Test C pre-/postemergence: morningglory
Method in brief: (§2)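 Preemergence on seeds in loam/sand, postemergence on 2–18 cm (1–4-leaf) plants in peat-based medium; compounds in non-phytotoxic solvent with surfactant. After 13–15 days in greenhouse, visual rating versus controls, 0 (no effect) to 100 (complete control).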

[4] = test system: ragweed (common ragweed, Ambrosia elation); experiment: Test C pre-/postemergence: ragweed
Method in brief: as §2

[5] = test system: chickweed (common chickweed, Stellaria media); experiment: Test C postemergence: chickweed
Method in brief: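 Pot-grown plants in peat/vermiculite medium sprayed postemergence at 2–18 cm height (1- to 4-leaf stage). Kept in greenhouse 13 to 15 days, then visually rated against untreated controls on a 0–100 scale (0 = no effect, 100 = complete control).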

[6] = test system: ryegrass, Italian (Italian ryegrass, Lolium multiflorum); experiment: Test C pre-/postemergence: ryegrass, Italian
Method in brief: as §2

wild oat (Avena fatua) = experiment: Test C pre-/postemergence: wild oat; conditions: Postemergence
Method in brief: as §2

corn (Zea mays) [7] = experiment: Test A pre-/postemergence: corn; conditions: for Corn plant response rating: visual rating on 0 to 100 scale (0 no effect, 100 complete control), approximately ten days
Method in brief: as §1

[8] = test system: morningglory (Ipomoea spp.); experiment: Test A pre-/postemergence: morningglory; conditions: for Morningglory plant response rating: visual rating on 0 to 100 scale (0 no effect, 100 complete control), approximately ten days
Method in brief: as §1

[9] = test system: large crabgrass (Digitaria sanguinalis); experiment: Test C pre-/postemergence: large crabgrass
Method in brief: as §2

corn (Zea mays) [10] = experiment: Test C pre-/postemergence: corn
Method in brief: as §2

[11] = test system: johnsongrass (Sorghum halepense); experiment: Test C pre-/postemergence: johnsongrass
Method in brief: as §2

[12] = Postemergence, 125 g ai/ha, 0 to 100 scale, 0 is no effect, 100 is complete control
[13] = Preemergence, 125 g ai/ha, 0 to 100 scale where 0 is no effect and 100 is complete control
[14] = Preemergence, 500 g ai/ha, 0 to 100 scale (0 no effect, 100 complete control)
[15] = Postemergence, 31 g ai/ha, scale 0 to 100 (0 no effect, 100 complete control)
[16] = Postemergence, 62 g ai/ha, scale 0 to 100 (0 no effect, 100 complete control)
[17] = Postemergence, 125 g ai/ha, scale 0 to 100, 0 no effect, 100 complete control
[18] = Postemergence, 250 g ai/ha, scale 0 to 100
[19] = Preemergence, 31 g ai/ha, scale of 0 to 100, 0 is no effect, 100 is complete control
[20] = Preemergence, 62 g ai/ha, scale of 0 to 100, 0 is no effect, 100 is complete control
[21] = Preemergence, 125 g ai/ha, scale 0 to 100, 0 no effect, 100 complete control
[22] = Preemergence, 250 g ai/ha, scale 0 to 100, 0 no effect, 100 complete control
[23] = 31 g ai/ha, scale 0 to 100 (0 no effect, 100 complete control)
[24] = 62 g ai/ha, scale 0 to 100 (0 no effect, 100 complete control)
[25] = 125 g ai/ha, scale 0 to 100, 0 no effect, 100 complete control

Q: Which results are given for `CCCc1nn(-c2ccc(F)cc2)nc1Cc1ccnc(C(F)(F)F)c1` [Compound 153]?
A: Plant response rating, Pigweed [1, 12]: 100; Pigweed plant response rating ([1]; Postemergence, 500 g ai/ha): 100; Plant response rating, Pigweed [1, 13]: 100; Plant response rating, Pigweed [1, 14]: 100; Plant response rating, Wheat [2, 12]: 60; Wheat plant response rating ([2]; Postemergence, 500 g ai/ha): 70; Plant response rating, Wheat [2, 13]: 50; Plant response rating, Wheat [2, 14]: 70; Plant response rating, Morningglory [3, 15]: 40; Plant response rating, Morningglory [3, 16]: 80; Plant response rating, Morningglory [3, 17]: 95; Plant response rating, Morningglory [3, 18]: 95; Plant response rating, Morningglory [3, 19]: 20; Plant response rating, Morningglory [3, 20]: 30; Plant response rating, Morningglory [3, 21]: 50; Plant response rating, Morningglory [3, 22]: 50; Plant response rating, Ragweed [4, 15]: 55; Plant response rating, Ragweed [4, 16]: 55; Plant response rating, Ragweed [4, 17]: 80; Plant response rating, Ragweed [4, 18]: 85; Plant response rating, Ragweed [4, 19]: 5; Plant response rating, Ragweed [4, 20]: 10; Plant response rating, Ragweed [4, 21]: 80; Plant response rating, Ragweed [4, 22]: 80; Plant response rating, Chickweed [5, 23]: 95; Plant response rating, Chickweed [5, 24]: 95; Plant response rating, Chickweed [5, 25]: 95; Plant response rating, Chickweed ([5]; 250 g ai/ha, scale 0 to 100): 95; Plant response rating, Ryegrass, Italian [6, 15]: 30; Plant response rating, Ryegrass, Italian [6, 16]: 35; Plant response rating, Ryegrass, Italian [6, 17]: 60; Plant response rating, Ryegrass, Italian [6, 18]: 65; Plant response rating, Ryegrass, Italian [6, 19]: 60; Plant response rating, Ryegrass, Italian [6, 20]: 90; Plant response rating, Ryegrass, Italian [6, 21]: 90; Plant response rating, Ryegrass, Italian [6, 22]: 90; Plant response rating, Oat, Wild (wild oat (Avena fatua); [23]): 35; Plant response rating, Oat, Wild (wild oat (Avena fatua); [24]): 50; Plant response rating, Oat, Wild (wild oat (Avena fatua); [25]): 70; Plant response rating, Oat, Wild (wild oat (Avena fatua); 250 g ai/ha, scale 0 to 100): 85; Plant response rating, Corn (corn (Zea mays) [7]; [12]): 60; Corn plant response rating (corn (Zea mays) [7]; Postemergence, 500 g ai/ha): 80; Plant response rating, Corn (corn (Zea mays) [7]; [13]): 70; Plant response rating, Corn (corn (Zea mays) [7]; [14]): 80; Plant response rating, Morningglory [8, 12]: 90; Morningglory plant response rating ([8]; Postemergence, 500 g ai/ha): 100; Plant response rating, Morningglory [8, 13]: 80; Plant response rating, Morningglory [8, 14]: 100; Plant response rating, Crabgrass, Large [9, 15]: 50; Plant response rating, Crabgrass, Large [9, 16]: 55; Plant response rating, Crabgrass, Large [9, 17]: 80; Plant response rating, Crabgrass, Large [9, 18]: 90; Plant response rating, Crabgrass, Large [9, 19]: 100; Plant response rating, Crabgrass, Large [9, 20]: 100; Plant response rating, Crabgrass, Large [9, 21]: 100; Plant response rating, Crabgrass, Large [9, 22]: 100; Plant response rating, Corn (corn (Zea mays) [10]; [15]): 20; Plant response rating, Corn (corn (Zea mays) [10]; [16]): 25; Plant response rating, Corn (corn (Zea mays) [10]; [17]): 45; Plant response rating, Corn (corn (Zea mays) [10]; [18]): 55; Plant response rating, Corn (corn (Zea mays) [10]; [19]): 10; Plant response rating, Corn (corn (Zea mays) [10]; [20]): 25; Plant response rating, Corn (corn (Zea mays) [10]; [21]): 25; Plant response rating, Corn (corn (Zea mays) [10]; [22]): 35; Plant response rating, Johnsongrass [11, 15]: 40; Plant response rating, Johnsongrass [11, 17]: 60; Plant response rating, Johnsongrass [11, 18]: 90; Plant response rating, Johnsongrass [11, 19]: 90; Plant response rating, Johnsongrass [11, 20]: 90; Plant response rating, Johnsongrass [11, 21]: 95; Plant response rating, Johnsongrass [11, 22]: 98

Q: What does the source list for `Cc1nn(-c2ccc(C(F)(F)F)c(F)c2)nc1Cc1ccnc(C(F)(F)F)c1` [Compound 162]?
A: Plant response rating, Pigweed [1, 12]: 100; Pigweed plant response rating ([1]; Postemergence, 500 g ai/ha): 100; Plant response rating, Pigweed [1, 13]: 100; Plant response rating, Pigweed [1, 14]: 100; Plant response rating, Wheat [2, 12]: 20; Wheat plant response rating ([2]; Postemergence, 500 g ai/ha): 30; Plant response rating, Wheat [2, 13]: 10; Plant response rating, Wheat [2, 14]: 30; Plant response rating, Morningglory [3, 19]: 55; Plant response rating, Morningglory [3, 20]: 60; Plant response rating, Morningglory [3, 21]: 80; Plant response rating, Morningglory [3, 22]: 85; Plant response rating, Ragweed [4, 15]: 85; Plant response rating, Ragweed [4, 17]: 85; Plant response rating, Ragweed [4, 18]: 95; Plant response rating, Ragweed [4, 19]: 50; Plant response rating, Ragweed [4, 20]: 75; Plant response rating, Ragweed [4, 21]: 80; Plant response rating, Ragweed [4, 22]: 95; Plant response rating, Chickweed [5, 23]: 100; Plant response rating, Chickweed [5, 24]: 100; Plant response rating, Chickweed [5, 25]: 100; Plant response rating, Chickweed ([5]; 250 g ai/ha, scale 0 to 100): 100; Plant response rating, Ryegrass, Italian [6, 15]: 30; Plant response rating, Ryegrass, Italian [6, 16]: 35; Plant response rating, Ryegrass, Italian [6, 17]: 60; Plant response rating, Ryegrass, Italian [6, 18]: 80; Plant response rating, Ryegrass, Italian [6, 19]: 60; Plant response rating, Ryegrass, Italian [6, 20]: 80; Plant response rating, Ryegrass, Italian [6, 21]: 90; Plant response rating, Ryegrass, Italian [6, 22]: 95; Plant response rating, Oat, Wild (wild oat (Avena fatua); [23]): 40; Plant response rating, Oat, Wild (wild oat (Avena fatua); [24]): 60; Plant response rating, Oat, Wild (wild oat (Avena fatua); [25]): 60; Plant response rating, Oat, Wild (wild oat (Avena fatua); 250 g ai/ha, scale 0 to 100): 90; Plant response rating, Corn (corn (Zea mays) [7]; [12]): 20; Corn plant response rating (corn (Zea mays) [7]; Postemergence, 500 g ai/ha): 40; Plant response rating, Corn (corn (Zea mays) [7]; [13]): 20; Plant response rating, Corn (corn (Zea mays) [7]; [14]): 30; Plant response rating, Morningglory [8, 12]: 90; Morningglory plant response rating ([8]; Postemergence, 500 g ai/ha): 90; Plant response rating, Morningglory [8, 13]: 30; Plant response rating, Morningglory [8, 14]: 90; Plant response rating, Crabgrass, Large [9, 15]: 20; Plant response rating, Crabgrass, Large [9, 16]: 35; Plant response rating, Crabgrass, Large [9, 17]: 35; Plant response rating, Crabgrass, Large [9, 18]: 80; Plant response rating, Crabgrass, Large [9, 19]: 100; Plant response rating, Crabgrass, Large [9, 20]: 100; Plant response rating, Crabgrass, Large [9, 21]: 100; Plant response rating, Crabgrass, Large [9, 22]: 100; Plant response rating, Corn (corn (Zea mays) [10]; [15]): 15; Plant response rating, Corn (corn (Zea mays) [10]; [16]): 30; Plant response rating, Corn (corn (Zea mays) [10]; [17]): 30; Plant response rating, Corn (corn (Zea mays) [10]; [18]): 40; Plant response rating, Corn (corn (Zea mays) [10]; [19]): 5; Plant response rating, Corn (corn (Zea mays) [10]; [20]): 20; Plant response rating, Corn (corn (Zea mays) [10]; [21]): 20; Plant response rating, Corn (corn (Zea mays) [10]; [22]): 35; Plant response rating, Johnsongrass [11, 15]: 45; Plant response rating, Johnsongrass [11, 16]: 80; Plant response rating, Johnsongrass [11, 17]: 80; Plant response rating, Johnsongrass [11, 18]: 98; Plant response rating, Johnsongrass [11, 19]: 35; Plant response rating, Johnsongrass [11, 20]: 60; Plant response rating, Johnsongrass [11, 21]: 98; Plant response rating, Johnsongrass [11, 22]: 98
